Test results from US20240057598A1, “USE OF 2-AMINO-3-METHYLHEXANOIC ACID AS PLANT IMMUNITY INDUCER” (NANJING AGRICULTURAL UNIVERSITY, priority 2020, published 2024).

Tested on: tea "Baiye 1" cutting seedlings
Assay: Effect on amino acid content of tea leaves at normal temperature
Type: in vivo
Set-up: Amino acid content of tea leaves: unit not given here
Settings: 10 nM, room temperature
Protocol: At normal temperature, the effect of 2-amino-3-methylhexanoic acid on tea quality was determined using “Baiye 1” cutting seedlings as the tea trees tested. Tea seedlings with relatively consistent growth were transplanted into a plastic pot with a diameter of 18 cm and placed in a greenhouse at a temperature of 25° C. and a humidity of 60%-70% for adaptive growth for about a week. Two concentrations of 0 and 10 nM were set in the experiment, and 0.02% Tween 20 was added as a surfactant. 1 week after transplanting, the stems and leaves of the tea seedlings were sprayed once every 24 h, twice in total. After spray, the tea leaves were placed in a greenhouse at 25° C., and samples were taken on the 1st, 3rd, 5th and 7th days to determine the total amino acid content of one leaf and one bud at the top of tea leaves.

CCCC(C)C(N)C(=O)O (stereo not drawn) [2-amino-3-methylhexanoic acid]
Increase of amino acid content compared with control (3rd day): 14% | Increase of amino acid content compared with control (5th day): 26% | Amino acid content of tea leaves (day 1): 2.13 | Amino acid content of tea leaves (day 3): 2.44 | Amino acid content of tea leaves (day 5): 2.69 | Amino acid content of tea leaves (day 7): 2.08
